Data on 20 compounds can be found in US5204352A, “Compounds exhibiting anti-parasitic activity and a method for their use” (The United States of America as represented by the …, priority 1987, dated 1993).

“And” between values parts separate entries of the source, which are not always exact repeats. Equal values may be shown once.

In the assay the test system is Trypanosoma rhodesiense. The assay is described as follows: In vivo trypanocidal activity in infected mice (protocol based on Rane et al.). Conditions: for Activity at dosage (C = Cures) / Activity at dosage, value in parentheses (increase in survival): peritoneal (Table 2). Also on record: Activity at dosage, value in parentheses (increase in survival): unit not given here. How it is done: The compounds of the present invention were evaluated biologically in vivo with groups of 5 mice at various dose levels. Unless otherwise indicated, the data are for subcutaneous administration. Dose levels marked with an asterisk are for peritoneal administration in a HEC+T medium. In addition, Table 2 present results of peritoneal administration with substituted quanylhydrazones. The biological evaluation was done according to a standard protocol based on the method described by Rane et al., Amer. J. Trop. Med Hyg. 25:395 (1976). […]

Where [1] appears, read: 6.6* mg/kg, peritoneal in HEC+T medium (Table I).
Where [2] appears, read: 13* mg/kg, peritoneal in HEC+T medium (Table I).
Setting [3] is: 26* mg/kg, peritoneal in HEC+T medium (Table I).
The mark [4] stands for this setting: 106* mg/kg, peritoneal in HEC+T medium (Table I).
[5] abbreviates: 424* mg/kg, peritoneal in HEC+T medium (Table I).

Take `Cc1ccc2n(c1)cc(-c1ccc(C=NNC(=N)N)cc1)[n+]2C` [BK13078]: the Increase in survival amounted to 5.3 days (0.21 mg/kg, subcutaneous); 7.0 days (0.42 mg/kg, subcutaneous); 11.0 days (1.66 mg/kg, subcutaneous); 1.0 days (3.3 mg/kg, subcutaneous); 7.0 days under setting [1]. Also, the “Trypanocidal activity, cures” value is, setting by setting: (0.21 mg/kg, subcutaneous) 2/5; (0.42 mg/kg, subcutaneous) 4/5; (0.83 mg/kg, subcutaneous) 10/10; (1.66 mg/kg, subcutaneous) 9/10; (3.33 mg/kg, subcutaneous) 5/5; (6.65 mg/kg, subcutaneous) 5/5. Further, the “Trypanocidal activity, cures” value by setting is: (13.3 mg/kg, subcutaneous) 10/10; (26.5 mg/kg, subcutaneous) 15/15; under setting [1], 3/5; under setting [2], 10/10; under setting [3], 13/15; (53* mg/kg, peritoneal in HEC+T medium (Table I)) 10/10. Besides, the “Trypanocidal activity, cures” value runs as follows: under setting [4], 10/10; (212* mg/kg, peritoneal in HEC+T medium (Table I)) 5/5. Besides, the “Activity at dosage (C = Cures)” value is “INAC” (0.8 mg/kg) and “INAC” (1.7 mg/kg). In addition, the “Activity at dosage, value in parentheses (increase in survival)” value (shortened to “Activity at dosage … (increase in survival)”) runs as follows: (3.3 mg/kg) 1.0; (6.7 mg/kg) 7.0; (26 mg/kg) 10.6; (424 mg/kg) 12.5.

On to `C[n+]1c(-c2ccc(C(N)=NO)cc2)cn2ccccc21` [BJ84974], for which the Increase in survival reads like this: (13.3 mg/kg, subcutaneous) 3.1 days; (26.5 mg/kg, subcutaneous) 1.6 days; (106 mg/kg, subcutaneous) 9.9 days. Besides, the “Trypanocidal activity, cures” value is, setting by setting: (26.5 mg/kg, subcutaneous) 2/10; (53 mg/kg, subcutaneous) 5/5; (106 mg/kg, subcutaneous) 9/10; (212 mg/kg, subcutaneous) 5/5.

As for `C=CC[n+]1c(-c2ccc(C=NNc3ncn[nH]3)cc2)cn2ccccc21` [BK24017], the Increase in survival (26 mg/kg, subcutaneous) is on record as 2.3 days and the Increase in survival (53 mg/kg, subcutaneous) is on record as 4.6 days. Further, the “Trypanocidal activity, cures” value (26 mg/kg, subcutaneous) is reported as 4/10.

Consider `Cn1c(COc2ccc(C=NNC3=NCCN3)cc2)[n+](C)c2ccccc21` [BL10018], for which the Increase in survival (0.4 mg/kg, subcutaneous) was found to be 6.8 days. For the same compound, the “Trypanocidal activity, cures” value (0.4 mg/kg, subcutaneous) is listed as 3/5; the “Trypanocidal activity, cures” value (1.6 mg/kg, subcutaneous) is 10/10; the “Trypanocidal activity, cures” value (6.6 mg/kg, subcutaneous) is recorded as 5/5.

`C[n+]1ccc(COc2ccc(C=NNC3=NCCN3)cc2)cc1` [BL12129]: for the setting “3.3 mg/kg, subcutaneous”, the Increase in survival amounted to 6.8 days and the “Trypanocidal activity, cures” value is on record as 1/5. In addition, where the note is “13 mg/kg, subcutaneous”, the Increase in survival is reported as 5.0 days and the “Trypanocidal activity, cures” value is 8/10.

`CCN(CC)CCNC(=N)c1ccc(-c2cn3ccccc3[n+]2C)cc1` [BK23001]: for the setting “13.3 mg/kg, subcutaneous”, the Increase in survival stood at 6.6 days.

`CC(=O)Nc1ccc(-c2cn3cc(I)ccc3[n+]2C)cc1` [BJ83306]: the Increase in survival (106 mg/kg, subcutaneous) turned out to be 2.3 days; the Increase in survival (212 mg/kg, subcutaneous) came to 3.9 days; the Increase in survival (424 mg/kg, subcutaneous) stood at 6.5 days. For the same compound, the “Trypanocidal activity, cures” value reads like this: (106 mg/kg, subcutaneous) 3/10; (212 mg/kg, subcutaneous) 1/5; (424 mg/kg, subcutaneous) 4/10.

For the compound `C[n+]1c(-c2ccc(C=NNC(=N)N3CCCC3)cc2)cn2ccccc21` [BK50277], the “Trypanocidal activity, cures” value (0.1 mg/kg, subcutaneous) is recorded as 5/5; the “Trypanocidal activity, cures” value (0.2 mg/kg, subcutaneous) was 4/5; the “Trypanocidal activity, cures” value (0.4 mg/kg, subcutaneous) was 5/5; the “Trypanocidal activity, cures” value (0.8 mg/kg, subcutaneous) is recorded as 9/10; the “Trypanocidal activity, cures” value (1.7 mg/kg, subcutaneous) is recorded as 10/10; the “Trypanocidal activity, cures” value (3.3 mg/kg, subcutaneous) was 5/5.

With `CCN=C(NCC)NN=Cc1ccc(OCc2cn3ccccc3[n+]2C)cc1` [BL03933], for the setting “1.6 mg/kg, subcutaneous”, the Increase in survival is 6.3 days. Also, the “Trypanocidal activity, cures” value is recorded as 7/10 (1.6 mg/kg, subcutaneous); 5/5 (3.3 mg/kg, subcutaneous); 5/5 (6.6 mg/kg, subcutaneous).

For the compound `C[n+]1c(-c2ccc(C=NNC(N)=O)cc2)cn2ccsc21` [BK21918], the Increase in survival came out at 4.8 days (26.5 mg/kg, subcutaneous) and 4.5 days (53 mg/kg, subcutaneous).

On to `CC(=O)Nc1ccc(-c2cn3ccccc3[n+]2C)cc1` [BJ83315], for which the Increase in survival is, setting by setting: (106 mg/kg, subcutaneous) 3.7 days; (212 mg/kg, subcutaneous) 6.4 days; (424 mg/kg, subcutaneous) 2.9 days. Also, the “Trypanocidal activity, cures” value (212 mg/kg, subcutaneous) is reported as 3/5 and the “Trypanocidal activity, cures” value (424 mg/kg, subcutaneous) is reported as 9/10.

`C[n+]1c(COc2ccc(C(=N)N)cc2)cn2ccccc21` [BK65330]: for the setting “13.3 mg/kg, subcutaneous”, the Increase in survival came out at 12 days and the “Trypanocidal activity, cures” value is reported as 3/5.

Turning to `C[n+]1c(-c2ccc(C=NNC(=N)N)cc2)c(Br)n2ccccc21` [BK51907], the “Activity at dosage (C = Cures)” value reads like this: (0.8 mg/kg) “INAC”; (1.7 mg/kg) “INAC”. The “Activity at dosage … (increase in survival)” value is, setting by setting: (3.3 mg/kg) 1.2; (6.7 mg/kg) 3.8; (13 mg/kg) 7.0; (26 mg/kg) 10.0; (424 mg/kg) 2.0.

Turning to `CC(=O)Nc1ccc(-c2cn3ccccc3[n+]2C)cc1` [BJ36718], the Increase in survival by setting is: (53 mg/kg, subcutaneous) 8.0 days; (106 mg/kg, subcutaneous) 4.4 days; under setting [4], 7.0 days; under setting [5], 11.0 days. Further, the “Trypanocidal activity, cures” value runs as follows: (53 mg/kg, subcutaneous) 4/5; (212 mg/kg, subcutaneous) 3/5 and 4/5; under setting [4], 7/10; under setting [5], 8/10.

Take `COC(=O)c1ccc2n(c1)cc(-c1ccc(NC(C)=O)cc1)[n+]2C` [BJ90758]: the Increase in survival is recorded as 4.2 days (106 mg/kg, subcutaneous) and 4.2 days (424 mg/kg, subcutaneous). Also, the “Trypanocidal activity, cures” value (424 mg/kg, subcutaneous) is on record as 2/10.

For the compound `C[n+]1c(-c2ccc(C(=N)N)cc2)cn2ccccc21` [BK16471], the Increase in survival (13.3 mg/kg, subcutaneous) is on record as 3.2 days. The “Trypanocidal activity, cures” value by setting is: (13.3 mg/kg, subcutaneous) 2/10; (26.5 mg/kg, subcutaneous) 10/10; (53 mg/kg, subcutaneous) 5/5.

Take `C=CC[n+]1c(-c2ccc(NC(C)=O)cc2)cn2cc(C)ccc21` [BK02557]: under setting [5], the Increase in survival was 3.8 days and the “Trypanocidal activity, cures” value is 2/10.

In the case of `C=CC[n+]1c(-c2ccc(C=NNC(=N)N)cc2)cn2ccccc21` [BK11770], the “Trypanocidal activity, cures” value (13.3 mg/kg, subcutaneous) is reported as 5/5.

For `C[n+]1c(-c2ccc(C=NNC(=N)N3CCOCC3)cc2)cn2ccccc21` [BK51890], the “Activity at dosage … (increase in survival)” value turned out to be 1.7 (0.8 mg/kg), 10.9 (1.7 mg/kg) and 5.9 (26 mg/kg). For the setting “1.66* mg/kg, peritoneal in HEC+T medium (Table I)”, the Increase in survival was found to be 10.9 days. Also, the “Trypanocidal activity, cures” value is on record as 5/5 (3.3* mg/kg, peritoneal in HEC+T medium (Table I)); 5/5 under setting [1]; 5/5 under setting [2]; 9/10 under setting [3]; 5/5 under setting [4]; 5/5 under setting [5].

With `CC(=O)Nc1ccc(-c2cn3c([n+]2C)CCCC3)cc1` [BJ51911], the Increase in survival runs as follows: (26.5 mg/kg, subcutaneous) 1.2 days; (53 mg/kg, subcutaneous) 6.4 days; (106 mg/kg, subcutaneous) 7.4 days. Further, the “Trypanocidal activity, cures” value by setting is: (26.5 mg/kg, subcutaneous) 1/10; (106 mg/kg, subcutaneous) 3/10.
